Data published in patent publication US11667629B2, “Isoxazole derivative, preparation method therefor, and use thereof” (SICHUAN KELUN-BIOTECH BIOPHARMACEUTICAL CO., LTD., priority 2017, dated 2023).

Assays:
FXR [1] = target: T1, FXR (Homo sapiens, UniProt Q96RI1); assay: Bile acid receptor FXR coactivator binding assay (LanthaScreen TR-FRET); format: biochemical; conditions: for EC50: TR-FRET coactivator assay, four-parameter fit, read-out: EC50 of the compounds on FXR; for Emax: read-out: Relative activation effect
T1 construct: purchased Invitrogen
Procedure: The Invitrogen⋅LanthaScreen™ TR-FRET Farnesoid X Receptor Coactivator Assay kit was employed to determine the activation effect of the compounds on FXR.
After the receptor was incubated with the test compound at various concentrations at room temperature, the fluorescent-labeled coactivator short peptides and terbium-labeled antibody were added, and the FRET signal was detected after the reaction was complete at room temperature. The group without the receptor protein was employed as a blank, the activation effect (EC50) and maximum activation effect signal value (Emax) of the test compounds on FXR were calculated according to the four-parameter fitting equation: y=E min+(E max−E min)/(1+(x/EC50)^(−Hillslope))

[2] = Pharmacokinetics (PK) and liver tissue distribution in rats; format: in vivo, rat
Procedure: The test compound was administered to male SD rats by intravenous (IV) and by gavage (PO), and the pharmacokinetics and liver tissue distribution characteristics of the test compound were evaluated. The doses of the IV and PO administration were respectively 1 mg/kg and 5 mg/kg. The vehicle for IV was 5% DMSO:5% Solutol:90% physiological saline, and the vehicle for PO was 0.5% MC. Blood and liver were collected at various time points after the IV and PO administration. The blood was treated with EDTA. K2 for anticoagulation, and was centrifuged to obtain a plasma sample; the liver was homogenized and stored at −80° C. The plasma and liver samples were analyzed by LC-MS/MS after being subjected to protein precipitation.
By employing the WinNonlin 6.3 software, the pharmacokinetic parameters were calculated according to a non-compartment model.

FXR [3] = target: T2, FXR (Homo sapiens, UniProt Q96RI1); assay: Luciferase reporter gene assay (HEK293 cotransfected with FXR and human BSEP luciferase reporter); format: cell-based; conditions: for EC50: HEK293, 18 hours incubation; for Emax: HEK293, maximum activation effect, relative signal percentage, blank well = 100%
T2 construct: expressed in transfected cells; host or cells: HEK293
T2 sequence (Q96RI1 1-486): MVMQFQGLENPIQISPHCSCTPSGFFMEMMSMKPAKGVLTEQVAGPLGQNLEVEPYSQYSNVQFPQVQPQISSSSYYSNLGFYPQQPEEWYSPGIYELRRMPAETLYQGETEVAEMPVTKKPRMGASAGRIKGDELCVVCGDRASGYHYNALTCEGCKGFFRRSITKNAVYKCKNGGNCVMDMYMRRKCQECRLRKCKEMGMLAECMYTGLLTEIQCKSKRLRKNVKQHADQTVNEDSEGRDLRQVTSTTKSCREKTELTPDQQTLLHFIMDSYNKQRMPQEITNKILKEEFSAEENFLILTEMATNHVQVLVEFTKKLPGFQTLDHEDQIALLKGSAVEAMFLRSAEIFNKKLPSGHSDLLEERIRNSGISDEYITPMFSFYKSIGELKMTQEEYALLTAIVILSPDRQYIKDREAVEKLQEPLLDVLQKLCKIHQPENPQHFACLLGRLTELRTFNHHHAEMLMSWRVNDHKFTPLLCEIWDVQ
Procedure: Human embryonic kidney cells HEK293 were cultured in a DMEM medium containing 10% FBS. Plasmids were cotransfected to allow the cells to have over expression of FXR and human BSEP luciferase reporter genes. The transfected cells were digested, resuspended, counted, and plated in a multi-well plate. 10 μL of the test compound at various concentrations was added to the multi-well plate to result in final concentrations of 64 μM, 16 μM, 4 μM, 1 μM, 0.25 μM, 0.0625 μM, 0.0156 μM, 0.0039 μM, 0.000975 μM, 0.000244 μM, 0 μM, and the final concentration of DMSO was 0.5%. After the test compound was incubated with the cells for 18 hours, the Brigh-Glo™ detection reagent was added, and the chemical light unit value (RLU) was detected by a multifunctional automatic microplate reader. Taking the signal value of the blank well (without the test compound) as 100%, the relative signal percentage (%) at each concentration of the test compound was calculated. The SigmaPlot 10 software was employed to fit the EC50 and the maximum activation effect Emax (relative signal percentage) of the test compounds using a four-parameter model.

[4] = IV, 1 mg/kg, male SD rats, plasma
[5] = PO, 5 mg/kg, male SD rats, blood
[6] = PO, 5 mg/kg, male SD rats, liver

Row | SMILES | EC50 (FXR [1]) | EC50 (FXR [3]) | Emax (FXR [3]) | Emax (FXR [1]) | other results
1 | O=C(O)c1cccc(-c2csc(N3CCC(OCc4c(-c5c(Cl)cccc5Cl)noc4C4CC4)CC3)n2)c1 [Compound C1, 3-(2-(4-((5-cyclopropyl-3-(2,6-dichlorophenyl)isoxazol-4-yl)methoxy)piperidin-1-yl)thiazol-4-yl)benzoic acid] | 178 ± 21 nM | – | – | – | –
2 | O=C(O)c1ccc(-c2csc(N3CCC(OCc4c(-c5c(Cl)cccc5Cl)noc4C4CC4)CC3)n2)cc1 [Compound C2, 4-(2-(4-((5-cyclopropyl-3-(2,6-dichlorophenyl)isoxazol-4-yl)methoxy)piperidin-1-yl)thiazol-4-yl)benzoic acid] | 12 ± 4 nM | 20 ± 10 nM | 248% | 101% | AUClast [2, 4]: 2409 ± 108 ng·h/mL; Cmax [2, 4]: 4343 ± 172 ng/mL; AUClast (blood) [2, 5]: 1177 ± 304 ng·h/mL; Cmax (blood) [2, 5]: 252 ± 30 ng/mL; AUClast (liver) [2, 6]: 14941 ± 4276 ng·h/g; Cmax (liver) [2, 6]: 3367 ± 830 ng/g; liver enrichment ([2]; PO, 5 mg/kg, rats, liver versus blood exposure): significant liver enrichment effect
3 | Cn1nc(C(=O)O)cc1-c1ccc(N2CCC(OCc3c(-c4c(Cl)cccc4Cl)noc3C3CC3)CC2)cc1 [Compound C3, 5-(4-(4-((5-cyclopropyl-3-(2,6-dichlorophenyl)isoxazol-4-yl)methoxy)piperidin-1-yl)phenyl)-1-methyl-1H-pyrazole-3-carboxylic acid] | 42 ± 7 nM | – | – | – | –
4 | Cn1nc(-c2ccc(N3CCC(OCc4c(-c5c(Cl)cccc5Cl)noc4C4CC4)CC3)cc2)cc1C(=O)O [Compound C4, 3-(4-(4-((5-cyclopropyl-3-(2,6-dichlorophenyl)isoxazol-4-yl)methoxy)piperidin-1-yl)phenyl)-1-methyl-1H-pyrazole-5-carboxylic acid] | 10 ± 1 nM | 40 ± 10 nM | 255% | 102% | –
5 | Cn1nc(C(=O)O)cc1-c1cccc(N2CCC(OCc3c(-c4c(Cl)cccc4Cl)noc3C3CC3)CC2)c1 [Compound C6, 5-(3-(4-((5-cyclopropyl-3-(2,6-dichlorophenyl)isoxazol-4-yl)methoxy)piperidin-1-yl)phenyl)-1-methyl-1H-pyrazole-3-carboxylic acid] | 206 ± 18 nM | – | – | – | –
6 | O=C(O)c1ccc(-c2csc(N3[C@@H]4CC[C@H]3C[C@@H](OCc3c(-c5ccccc5OC(F)(F)F)noc3C3CC3)C4)n2)s1 [Compound C35, 5-(2-((1R,3r,5S)-3-((5-cyclopropyl-3-(2-(trifluoromethoxy)phenyl)isoxazol-4-yl)methoxy)-8-azabicyclo[3.2.1]octan-8-yl)thiazol-4-yl)thiophene-2-carboxylic acid] | 13 ± 3 nM | 91 ± 38 nM | 378% | 152% | –
7 | Cc1cc(C(=O)O)ccc1-c1csc(N2[C@@H]3CC[C@H]2C[C@@H](OCc2c(-c4c(Cl)cccc4Cl)noc2C2CC2)C3)n1 [Compound C37, 4-(2-((1R,3r,5S)-3-((5-cyclopropyl-3-(2,6-dichlorophenyl)isoxazol-4-yl)methoxy)-8-azabicyclo[3.2.1]octan-8-yl)thiazol-4-yl)-3-methylbenzoic acid] | 15 ± 1 nM | 6 ± 2 nM | 411% | 139% | –
8 | O=C(O)c1ccc(-c2csc(N3[C@@H]4CC[C@H]3C[C@@H](OCc3c(-c5ccccc5OC(F)(F)F)noc3C3CC3)C4)n2)cc1 [Compound C41, 4-(2-((1R,3r,5S)-3-((5-cyclopropyl-3-(2-(trifluoromethoxy)phenyl)isoxazol-4-yl)methoxy)-8-azabicyclo[3.2.1]octan-8-yl)thiazol-4-yl)benzoic acid] | – | 58 ± 23 nM | 252% | – | –
9 | Cc1cc(C(=O)O)ccc1-c1csc(N2[C@@H]3CC[C@H]2C[C@@H](OCc2c(-c4ccccc4OC(F)(F)F)noc2C2CC2)C3)n1 [Compound C42, 4-(2-((1R,3r,5S)-3-((5-cyclopropyl-3-(2-(trifluoromethoxy)phenyl)isoxazol-4-yl)methoxy)-8-azabicyclo[3.2.1]octan-8-yl)thiazol-4-yl)-3-methylbenzoic acid] | – | 33 ± 18 nM | 320% | – | –
10 | O=C(O)c1ccc(-c2csc(N3[C@@H]4CC[C@H]3C[C@@H](OCc3c(-c5ccccc5OC(F)(F)F)noc3C3CC3)C4)n2)c(F)c1 [Compound C43, 4-(2-((1R,3r,5S)-3-((5-cyclopropyl-3-(2-(trifluoromethoxy)phenyl)isoxazol-4-yl)methoxy)-8-azabicyclo[3.2.1]octan-8-yl)thiazol-4-yl)-3-fluorobenzoic acid] | – | 37 ± 19 nM | 343% | – | –
11 | O=C(O)c1ccc(-c2csc(N3[C@@H]4CC[C@H]3C[C@@H](OCc3c(-c5ccccc5OC(F)(F)F)noc3C3CC3)C4)n2)cc1F [Compound C44, 4-(2-((1R,3r,5S)-3-((5-cyclopropyl-3-(2-(trifluoromethoxy)phenyl)isoxazol-4-yl)methoxy)-8-azabicyclo[3.2.1]octan-8-yl)thiazol-4-yl)-2-fluorobenzoic acid] | 22 ± 5 nM | 21 ± 6 nM | 322% | 137% | –
12 | O=C(O)c1ccc(-c2csc(N3[C@@H]4CC[C@H]3C[C@@H](OCc3c(-c5ccccc5OC(F)(F)F)noc3C3CC3)C4)n2)c(C(F)(F)F)c1 [Compound C45, 4-(2-((1R,3r,5S)-3-((5-cyclopropyl-3-(2-(trifluoromethoxy)phenyl)isoxazol-4-yl)methoxy)-8-azabicyclo[3.2.1]octan-8-yl)thiazol-4-yl)-3-(trifluoromethyl)benzoic acid] | 110 ± 21 nM | – | – | 113% | –
13 | O=C(O)c1cc(-c2csc(N3[C@@H]4CC[C@H]3C[C@@H](OCc3c(-c5ccccc5OC(F)(F)F)noc3C3CC3)C4)n2)cs1 [Compound C47, 4-(2-((1R,3r,5S)-3-((5-cyclopropyl-3-(2-(trifluoromethoxy)phenyl)isoxazol-4-yl)methoxy)-8-azabicyclo[3.2.1]octan-8-yl)thiazol-4-yl)thiophene-2-carboxylic acid] | – | 19 ± 7 nM | 370% | – | –
14 | O=C(O)c1csc(-c2csc(N3[C@@H]4CC[C@H]3C[C@@H](OCc3c(-c5ccccc5OC(F)(F)F)noc3C3CC3)C4)n2)c1 [Compound C48, 5-(2-((1R,3r,5S)-3-((5-cyclopropyl-3-(2-(trifluoromethoxy)phenyl)isoxazol-4-yl)methoxy)-8-azabicyclo[3.2.1]octan-8-yl)thiazol-4-yl)thiophene-3-carboxylic acid] | – | 39 ± 17 nM | 382% | – | –
15 | O=C(O)c1ccc(-c2csc(N3[C@@H]4CC[C@H]3C[C@@H](OCc3c(-c5ccccc5OC(F)(F)F)noc3C3CC3)C4)n2)cn1 [Compound C50, 5-(2-((1R,3r,5S)-3-((5-cyclopropyl-3-(2-(trifluoromethoxy)phenyl)isoxazol-4-yl)methoxy)-8-azabicyclo[3.2.1]octan-8-yl)thiazol-4-yl)picolinic acid] | 31 ± 8 nM | – | – | 177% | –
